Earlier results, collected in patent EP0839024B1, “MONENSIN FORMULATIONS” (Elli Lilly & Co.(NZ)Limited, priority 1995, dated 1997).

What was measured:
[1] = as indicated in EP 0,139,595 (monensin and its sodium salt) and US Patent 3,715,372 (lasalocid); cited from earlier work
[2] = Example 1 of EP 0,139,595: 250 g mycelium containing 10% monensin, 1250 cc propylene glycol, room temperature, 2 hours, ultrasound; cited from earlier work

| Compound | solubility in water [1] | monensin found in solution in propylene glycol [2] [%] |
| --- | --- | --- |
| CC[C@@H](C(=O)[C@@H](C)[C@@H](O)[C@H](C)CCc1ccc(C)c(O)c1C(=O)O)[C@H]1O[C@](CC)([C@H]2CC[C@](O)(CC)[C@H](C)O2)C[C@@H]1C [lasalocid] | completely insoluble | – |
| CC[C@@]1([C@@H]2O[C@@H]([C@H]3O[C@@](O)(CO)[C@H](C)C[C@@H]3C)C[C@@H]2C)CC[C@H]([C@]2(C)CC[C@]3(C[C@H](O)[C@@H](C)[C@@H]([C@@H](C)[C@@H](OC)[C@H](C)C(=O)O)O3)O2)O1 [monensin] | – | 50 |
